Measurements as given in patent US20120258974A1, “USE OF A2B ADENOSINE RECEPTOR ANTAGONISTS FOR TREATING HEART FAILURE AND ARRHYTHMIA IN POST-MYOCARDIAL INFARCTION PATIENTS” (GILEAD SCIENCES, INC., priority 2011, published 2012).
“Also recorded” adds a separate entry of the source.

Assays:
[1] = system: human cardiac myocytes (HCM); experiment: NECA-induced IL-6 release from human cardiac myocytes (Example 7); type: cell-based; settings: for effect of NECA on HCM (IL-6 release): NECA in combination with antagonist
Description: This example uses human cardiac myocytes to test two other A2B adenosine receptor antagonists on their effect on NECA-induced IL-6 release.
Human cardiac myocytes (HCM) were treated with NECA alone, or in combination with Compound A, Compound B (N-[5-(1-cyclopropyl-2,6-dioxo-3-propyl-2,3,6,7-tetrahydro-1H-purin-8-yl)-pyridin-2-yl]-N-ethyl-nicotinamide, also known as ATL-801) or Compound C (2-(4-benzyloxy-phenyl)-N-[5-(2,6-dioxo-1,3-dipropyl-2,3,6,7-tetrahydro-1H-purin-8-yl)-1-methyl-1H-pyrazol-3-yl]-acetamide).

[2] = system: rats with MI (25 minutes coronary occlusion followed by reperfusion); experiment: Rat model of post-MI remodeling: serial echocardiograms (Example 6); type: in vivo
Description: The effects of Compound A in a rat model of post-MI remodeling and VT were determined. MI was caused by 25 minutes occlusion at the left anterior descending coronary ligation followed by reperfusion. One week later, rats were administered either vehicle or Compound A (100 mg/kg) once daily by oral gavage. Serial echocardiograms (ECHOs) to measure LV ejection fraction (LVEF), stroke volume and LV end systolic volume (LVESV) were obtained at baseline, 1 week and 5 week post-MI. Electrophysiological studies, optical mapping, histology and biomarker analysis were conducted at 5 week post-MI.

[3] = system: primary human cardiac fibroblasts (HCF); experiment: NECA-induced release of IL-6, collagen, ST-2, PAPPA and expression of fibrotic markers in human cardiac fibroblasts (Example 2); type: cell-based
Description: Real-time RT-PCR was performed as published using Stratagene PCR equipment (La Jolla, Calif.). Zhong H., et al., “A2B adenosine receptors increase cytokine release by bronchial smooth muscle cells,” American Journal of Respiratory Cell and Molecular Biology, 30(1): 118-125 (2004).
Expression of AdoR, α-smooth muscle actin and α-1 pro-collagen was determined using real-time RT-PCR. The concentration of IL-6, soluble ST-2 and PAPPA (Pregnancy-associated plasma protein A) in the cell supernatants were measured using ELISA, and the concentration of soluble collagen were determined using Sircol™ collagen assay.

## CCCn1c(=O)c2[nH]c(-c3cc(NC(=O)Cc4ccc(OCc5ccccc5)cc4)nn3C)nc2n(CCC)c1=O [Compound C]
[1]
  effect of NECA on HCM (IL-6 release): completely abolished

## Cc1ccc(=O)n(-c2ccccc2)c1 [pirfenidone, reference compound]
[2]; post-MI, Example 6 and FIG. 12B
  reduction of LVEF: only slowed
[2]; rat post-MI, comparison with Compound A, FIG. 12B
  LVESV (so in the source): increase and further reduction: did not increase; also recorded: only slightly inhibited

## N-ethylcarboxamide adenosine [NECA]
[3]; NECA 10 μM, basal 3.4±0.2
  soluble collagen concentration after stimulation: 6.0 ± 0.4 µg/mL
[3]; NECA 10 μM, p<0.05
  production of collagen, fold induction: 1.8±0.1 fold
[3]; NECA 10 μM, real-time RT-PCR
  expression of α-1 pro-collagen: increased
  expression of α-smooth muscle actin: increased
[3]; basal 1.4±0.5
  PAPPA concentration after stimulation: 6.2 ± 0.8 ng/mL
[3]; basal 1.5±0.1
  soluble ST-2 concentration after stimulation: 2.6 ± 0.1 ng/mL
[3]; concentration-dependent
  release of IL-6, maximal increase over the basal level: 2.4±0.1 fold
[3]; p<0.05
  release of PAPPA, fold induction: 4.4±0.6 fold
  release of soluble ST-2, fold induction: 1.7±0.1 fold
[1]; NECA alone
  IL-6 release from human cardiac myocytes: significantly increased

## CCCn1c(=O)n(C2CC2)c(=O)c2[nH]c(-c3ccc(N(CC)C(=O)c4cccnc4)nc3)nc21 [Compound B, N-[5-(1-cyclopropyl-2,6-dioxo-3-propyl-2,3,6,7-tetrahydro-1H-purin-8-yl)-pyridin-2-yl]-N-ethyl-nicotinamide]
[1]
  effect of NECA on HCM (IL-6 release): completely abolished
